# Source: PubChem BioAssay AID1259321 (Sanford-Burnham Center for Chemical Genomics, 2017)
# The source made the active and inactive calls.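 The calls were made as follows: active = half-maximal concentration for changing protein binding to DNA, from the fitted dose curve, below 10 micromolar; inactive = the rest.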
# Molecular target: Nuclear receptor subfamily 1 group D member 1 (Homo sapiens) (UniProt P20393)
# Test: modulators of Rev-erb alpha DNA binding, dose response, biochemical, FITC-DNA, fluorescence polarization (AID 1259321)
# Nuclear receptor subfamily 1 group D member 1 (Homo sapiens), sequence (P20393 whole entry, looked up): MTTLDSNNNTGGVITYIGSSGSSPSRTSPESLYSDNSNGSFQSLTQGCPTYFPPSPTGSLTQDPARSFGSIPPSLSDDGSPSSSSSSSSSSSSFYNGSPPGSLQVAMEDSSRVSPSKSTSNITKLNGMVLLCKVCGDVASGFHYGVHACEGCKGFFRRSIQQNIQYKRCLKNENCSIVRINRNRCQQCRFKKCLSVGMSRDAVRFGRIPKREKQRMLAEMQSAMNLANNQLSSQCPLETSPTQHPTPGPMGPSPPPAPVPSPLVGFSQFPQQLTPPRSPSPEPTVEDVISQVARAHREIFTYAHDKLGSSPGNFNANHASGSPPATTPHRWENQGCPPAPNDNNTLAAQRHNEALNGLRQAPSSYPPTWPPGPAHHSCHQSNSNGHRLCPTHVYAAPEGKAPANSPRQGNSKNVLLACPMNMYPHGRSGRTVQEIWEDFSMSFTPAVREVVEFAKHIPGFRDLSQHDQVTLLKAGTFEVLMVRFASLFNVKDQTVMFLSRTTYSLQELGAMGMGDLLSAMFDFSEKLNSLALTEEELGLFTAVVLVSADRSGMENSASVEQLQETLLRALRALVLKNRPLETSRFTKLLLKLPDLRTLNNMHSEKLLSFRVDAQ
row,Compound,IC50
1,COC(=O)c1cc(-c2cc3ccccc3s2)c(=O)n2c1CCC2,7.41 µM
2,Cc1cccc(C)c1NC(=O)COc1ccccc1C(=O)Nc1ccc(Br)cn1,4.34 µM
3,COC(=O)c1sc2nc3c(cc2c1N)C(=O)CC(C)(C)C3,inactive
4,COc1cc(/C=C(\C#N)c2nc3ccccc3o2)ccc1O,2.91 µM
5,Cc1cccc(NC(=O)C2CCCN(S(=O)(=O)c3cccc4nsnc34)C2)c1 (configuration not stated),2.17 µM
6,CN1/C(=C\C=C2C(=O)NC(=S)NC2=O)C(C)(C)c2ccccc21,6.96 µM
7,COc1ccc2cc(C#N)c(Nc3cccc(F)c3)nc2c1,7.69 µM
8,C/C(N)=C(/C#N)C(=O)CSc1nc2ccccc2c(=O)n1-c1ccc(C)c(Cl)c1,> 40 µM (inactive)
9,CCCOc1ccc(C(=O)Nc2nc(C)c(Cc3ccc4c(c3)OCO4)s2)cc1,inactive
10,O=c1oc2c3c4c(cc2c(C(F)(F)F)c1CCN1CCOCC1)CCCN4CCC3,inactive
11,O=C(N=c1ccn(-c2nc3ccccc3nc2NS(=O)(=O)c2ccc(Cl)cc2)cc1)c1cccs1,> 40 µM (inactive)
12,COc1ccc(-c2nc(-c3cccs3)c(-c3cccs3)[nH]2)cc1OC,5.77 µM
13,CSc1ccc(SC2CN(Cc3ccc(C)cc3)S(=O)(=O)C2)cc1 (configuration not stated),inactive
14,CCOc1ccc(/C(CC)=N/NC(=O)C2(C)CC2(Br)Br)cc1 (configuration not stated),7.81 µM
15,CCOC(=O)c1c(-c2ccccc2)csc1NC(=O)/C(C#N)=C/c1ccc(O)c(OC)c1,7.23 µM
16,O=C(Nc1nnc(SCc2ccccc2)s1)c1cc2c(s1)CCCC2,2.33 µM
17,CCOC(=O)N1CCC(n2c(SCC(=O)c3ccccc3)nc3ccsc3c2=O)CC1,2.26 µM
18,COc1ccccc1N=Nc1nc(-c2ccccc2)c(-c2ccccc2)[nH]1,0.465 µM
19,N#Cc1cccc(Cn2ccc3ccc(-c4ccc5ccn(Cc6cccc(C#N)c6)c5c4)cc32)c1,0.544 µM
20,CC1=NN(c2ccccc2)C(=O)/C1=C\C=C1\N(C)c2ccccc2C1(C)C,inactive
21,CN(CCC#N)c1ccc(/C=C(\C#N)c2ccccn2)cc1,5.63 µM
22,COc1cccc(C(=O)n2ccc3ccc(-c4ccc5ccn(C(=O)c6cccc(OC)c6)c5c4)cc32)c1,3.26 µM
23,Cc1ccccc1C(=O)N=c1ccn(-c2nc3ccccc3nc2NS(=O)(=O)c2ccc(F)cc2)cc1,5.69 µM
24,CN1C(=O)CSC1=NCC12CC3CC(CC(C3)C1)C2,5.32 µM
25,CCOC(=O)c1nn(-c2ccc(Cl)cc2)c2nc(-c3ccc(C)cc3)c(C#N)c(=O)n12,2 µM
26,O=C(CCc1c[nH]c2ccccc12)NCCc1ccc(Cl)cc1,> 40 µM (inactive)

row,Compound,IC50
1,Cc1cc(C)c2c(N)c(C(=O)N/N=C/c3cccs3)sc2n1,5.4 µM
2,CCC[C@H]1[C@@H](N(C)Cc2cccs2)CC[C@@]23CCCN2C(=O)CCC[C@@H]13,inactive
3,CCOc1ccccc1NC(=O)CSC1=C(C#N)C(c2ccco2)C(C(=O)Nc2nc3ccccc3s2)=C(C)N1 (configuration not stated),4.49 µM
4,O=C(CSc1ncnc2c1oc1ccccc12)c1cccs1,6.36 µM
5,CCC(=O)c1cn(CC(=O)Nc2ccccc2Cl)c2ccccc12,3.98 µM
6,CN(C)C=Nc1nc2c(Br)ccc(Br)c2cc1C(=O)NCC(C)(C)C,inactive
7,CCc1nnc(NC(=O)CSc2nc3cc4c(cc3cc2C)OCCO4)s1,7.62 µM
8,COc1ccc2c(/C=C/c3cc[n+](C)cc3)c[nH]c2c1,inactive
9,COc1ccc(C(=O)COC(=O)c2cc(=O)[nH]c3ccccc23)c(OC)c1,inactive
10,O=[N+]([O-])c1ccc2c(c1)Cc1cc(F)ccc1-2,9.46 µM
11,CCCCOC(=O)c1cc(C)nc2ccc(Br)cc12,inactive
12,CN1C(=O)/C(=C\c2ccc(N3CCCCC3)o2)C(=O)NC1=S,3.49 µM
13,COc1ccc(S(=O)(=O)N2CCc3ccccc32)cc1C(=O)Nc1ccc(NC(C)=O)cc1,5.19 µM
14,COc1cc(/C=C(\C#N)c2nc3ccccc3[nH]2)cc(OC)c1O,inactive
15,CCOc1ccc(NC(=O)CNC(=O)c2nn(-c3ccc(OC)c(OC)c3)c(=O)c3ccccc23)cc1,7.23 µM
16,O=C(c1cc2cc(Cl)ccc2[nH]1)N1CCN(c2ccccn2)CC1,> 40 µM (inactive)
17,CCC(=O)c1ccc(N2CCN(S(=O)(=O)c3ccccc3)CC2)c(F)c1,2.96 µM
18,COc1ccc(-c2cc(-c3cccnc3)c(C#N)c(N)n2)cc1,4.4 µM
19,NS(=O)(=O)c1ccc(CCn2c(=S)[nH]c3ccc(F)cc3c2=O)cc1,> 40 µM (inactive)
20,O=C(Nc1ccccc1)c1cc2c(=O)c3ccccc3oc2nc1C(F)(F)F,6.94 µM
21,O=C(Nc1ccnc(-c2cccnc2)n1)c1ccc(Cl)cc1,5.12 µM
22,COC(=O)c1cccc(Cn2ccc3ccc(-c4ccc5ccn(C(=O)c6ccc(C)cc6)c5c4)cc32)c1,> 40 µM (inactive)
23,Cc1cc(OC(C)C(=O)NCc2cccnc2)c2c(C)c(Cc3ccccc3)c(=O)oc2c1 (configuration not stated),inactive
24,N#C/C(=C(/O)C(Cl)c1ccccc1)c1nc2ccccc2s1 (configuration not stated),5.7 µM
25,CCc1cc2cc3c(cc2nc1SCC(=O)Nc1nnc(C)s1)OCCO3,5.32 µM
26,CCc1cc2cc(C)cc(C)c2nc1SCC(=O)N1CCCC1,> 40 µM (inactive)
